This note sets out measurements from patent US11161849B2, “Inhibiting the transient receptor potential al ion channel” (Eli Lilly and Company, priority 2018, dated 2021).

One data set addresses human TRPA1 (Homo sapiens (Human), UniProt O75762). Kind of data set: Inhibition of human TRPA1 in whole cell patch configuration (10 μM AITC activation). The format is cell-based. To be noted: current activation 10 μM AITC, tested concentrations 320 pM to 3.2 μM, read-out: hTRPA1 IC50. On the procedure:
Data for TRPA1 inhibition was obtained by this method for the indicated compounds of Formula (I), (II), or (III), with the relevant data included in Table 2 below. All currents were recorded in whole-cell configuration using EPC-9 and EPC-10 amplifiers and Patchmaster software (HEKA) or similar. […] The standard pipette solution consisted of 140 mM CsAsp, 10 mM EGTA, 10 mM HEPES, […], 1.91 mM CaCl2, and up to 0.3 mM Na2GTP, with pH adjusted to 7.2 with CsOH. In addition, a solution containing 145 mM CsCl, 10 mM HEPES, 10 mM EGTA, and up to 0.3 mM Na2GTP and 1 mM MgCl2 (pH 7.2 adjusted with CsOH) can be used. The standard bath solution contained 150 mM NaCl, 10 mM HEPES, 10 mM glucose, 4.5 mM KCl, 1 mM EGTA, 3 mM MgCl2, with pH adjusted to 7.4 with NaOH. In some instances, 2 mM CaCl2 was added in place of EGTA and the concentration of MgCl2 was reduced to 1 mM.
Data were collected either by continuous recordings at −60 mV or by applying voltage ramps from a holding potential of −40 mV every 4 s. Continuous recordings were collected at 400 Hz and digitally filtered off-line at 10 Hz for presentation. Voltage ramps were applied from −100 mV or −80 mV to +100 mV or +80 mV over the course of 400 ms, and data were collected at 10 kHz and filtered at 2.9 kHz. Inward and outward currents were analyzed from the ramps at −80 and 80 mV, respectively. Liquid junction potential correction was not used.
Solutions were switched using a gravity-fed continuous focal perfusion system. To achieve rapid temperature changes, two temperature control, and perfusion systems were employed simultaneously. For temperatures greater than or equal to 22° C., a Warner Instruments bipolar temperature controller (TC-344B) and inline heater (SHM-8) were used. For temperatures below 22° C. a Warner Instruments temperature controller (CL-100) and thermal cooling module (TCM-1) were used. Temperatures were confirmed using a thermistor (Warner Instruments, TA-29), with temperatures at the recorded cell estimated to be within +/−2° C. of those reported.
The antagonist effects of compounds of Formula (I), (II), or (III) against human TRPA1 (“hTRPA1”) in a whole cell patch configuration were evaluated using the in vitro assay described above. The current activation tested was 10 μM AITC, and the tested concentrations ranged from 320 pM to 3.2 μM.

Data set [1] is described as follows: Solubility in Normal Ringer Solution. Type of data set: physicochemical. To be noted: saline or isotonic, kinetic from dmso stock, pH 7.4 at room temperature, 40 minutes incubation, from 10 mM DMSO stock. As to the method: Compounds of the invention were also tested for solubility in Normal Ringer Solution. Briefly, compound solubility was determined by dissolving a standard range of volumes of 10 mM DMSO stock of compounds in Normal Ringer Solution (pH 7.4 at room temperature). Following vortex and incubation for 40 minutes at room temperature, solutions were filtered, quenched with acetonitrile, and analyzed by Liquid Chromatography. Solubility limits were determined by comparison to a standard curve. […] Solubility is reported as “greater than” if the observed increase between the last 2 dilutions tested is greater than 2-fold.

human TRPA1, sequence (O75762 whole entry): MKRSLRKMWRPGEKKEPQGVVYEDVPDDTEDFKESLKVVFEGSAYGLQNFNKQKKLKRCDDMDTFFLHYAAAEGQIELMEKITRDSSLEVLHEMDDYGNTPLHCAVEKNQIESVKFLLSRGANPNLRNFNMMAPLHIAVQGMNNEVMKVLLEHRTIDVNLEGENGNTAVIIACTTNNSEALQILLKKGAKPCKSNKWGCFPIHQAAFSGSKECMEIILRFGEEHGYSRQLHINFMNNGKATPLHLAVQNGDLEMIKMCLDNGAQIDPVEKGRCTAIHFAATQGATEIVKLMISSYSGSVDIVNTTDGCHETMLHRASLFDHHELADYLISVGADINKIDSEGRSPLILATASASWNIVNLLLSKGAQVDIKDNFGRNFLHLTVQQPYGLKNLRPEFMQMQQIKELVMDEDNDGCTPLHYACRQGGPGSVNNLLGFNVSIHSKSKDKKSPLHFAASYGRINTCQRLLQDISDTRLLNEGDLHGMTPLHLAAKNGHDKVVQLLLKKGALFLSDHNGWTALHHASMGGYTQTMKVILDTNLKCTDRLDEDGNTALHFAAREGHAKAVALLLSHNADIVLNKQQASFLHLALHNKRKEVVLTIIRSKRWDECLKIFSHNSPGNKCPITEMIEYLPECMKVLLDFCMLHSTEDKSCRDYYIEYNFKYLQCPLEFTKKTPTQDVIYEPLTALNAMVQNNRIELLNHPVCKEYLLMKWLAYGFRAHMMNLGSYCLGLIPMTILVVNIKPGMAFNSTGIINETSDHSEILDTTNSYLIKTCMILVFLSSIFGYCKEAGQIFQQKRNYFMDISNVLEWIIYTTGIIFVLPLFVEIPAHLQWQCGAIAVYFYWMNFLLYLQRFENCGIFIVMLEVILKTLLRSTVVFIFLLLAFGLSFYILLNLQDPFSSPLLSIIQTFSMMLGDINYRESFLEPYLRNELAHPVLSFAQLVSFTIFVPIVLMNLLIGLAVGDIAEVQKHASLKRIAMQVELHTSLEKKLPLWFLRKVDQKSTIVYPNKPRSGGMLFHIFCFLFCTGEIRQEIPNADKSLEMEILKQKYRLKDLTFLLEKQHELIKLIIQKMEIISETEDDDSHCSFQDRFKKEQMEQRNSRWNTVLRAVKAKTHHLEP

In general, IC50 refers to the concentration that inhibits the measured activity by half. As usually defined, the solubility is the concentration that dissolves in the medium under given conditions. For `Cc1noc(Cn2c(=O)[nH]c3ncn(C(C)C(=O)Nc4cncc(-c5cnc(C(F)(F)F)nc5)n4)c3c2=O)n1` (centres unmarked) [Compound 100], the IC50 on human TRPA1 was greater than 10 µM. For the same compound, the solubility at 40 min in data set [1] is greater than 31.3 µM.

As for `Cc1noc(Cn2c(=O)[nH]c3ncn(C(C)C(=O)Nc4cccc(-c5cnc(C(F)(F)F)nc5)n4)c3c2=O)n1` (centres unmarked) [Compound 101], the concentration for half-maximal inhibition (IC50) at human TRPA1 turned out to be 0.559 µM. The same compound came in with a solubility at 40 min in data set [1] greater than 31.3 µM.

In the case of `CC(=O)NC(=O)Cn1c(=O)c2c(ncn2[C@@H](C)C(=O)Nc2cncc(-c3cnc(C(F)(F)F)nc3)n2)n(C)c1=O` [Compound 102], the IC50 on human TRPA1 stood at 0.172 µM. This compound also came in with a solubility at 40 min in data set [1] greater than 31.3 µM.

As to `CC(=O)NC(=O)Cn1c(=O)c2c(ncn2[C@@H](C)C(=O)Nc2cccc(-c3cnc(C(F)(F)F)nc3)n2)n(C)c1=O` [Compound 103], the IC50 on human TRPA1 came out at 0.0476 µM. The compound further had a solubility at 40 min in data set [1] greater than 31.3 µM.

As for `C[C@@H](C(=O)Nc1cncc(-c2cnc(C(F)(F)F)nc2)n1)n1cnc2c1c(=O)n(CC(N)=O)c(=O)n2C` [Compound 104], the IC50 at human TRPA1 was 7.09 µM. Also, the solubility at 40 min in data set [1] was greater than 31.3 µM.

On to `C[C@@H](C(=O)Nc1cccc(-c2cnc(C(F)(F)F)nc2)n1)n1cnc2c1c(=O)n(CC(N)=O)c(=O)n2C` [Compound 105], for which, at human TRPA1, the IC50 was 0.566 µM. In data set [1], this compound returned a solubility at 40 min greater than 31.3 µM.

The compound `[2H]C([2H])([2H])n1c(=O)n(Cc2nc(C)no2)c(=O)c2c1ncn2C(C)C(=O)Nc1cncc(-c2cnc(C(F)(F)F)nc2)n1` (centres unmarked) [Compound 106] yielded a solubility at 40 min in data set [1] greater than 31.3 µM.

In data set [1], `[2H]C([2H])([2H])n1c(=O)n(Cc2nc(C)no2)c(=O)c2c1ncn2C(C)C(=O)Nc1cccc(-c2cnc(C(F)(F)F)nc2)n1` (centres unmarked) [Compound 107] returned a solubility at 40 min greater than 31.3 µM.
